A short description of series [1]: parent fraction in arterial plasma by HPLC during PET scan. In kind it is in vivo. Conditions: human, baseline and post-dose sessions, 90 min. The procedure: Arterial blood radioactivity was measured continuously for the first 15 min after [^11C]GSK1034702 injection, using a continuous sampling system (ABSS Allogg, Mariefred, Sweden). In addition, 12 serial discrete blood samples were obtained (at 5, 10, 15, 20, 25, 30, 40, 50, 60, 70, 80 and 90 min post injection), to determine whole blood and plasma activity. Seven samples (at 5, 10, 20, 30, 50, 70 and 90 min) were further processed by HPLC to measure the fraction of plasma activity representing unmetabolised GSK1034702. For all human studies, the non-protein-bound fraction of [^11C]GSK1034702 in arterial plasma (fP) was assessed by ultrafiltration for the blood sample taken at the beginning of the scan.

Series [2] is described as follows: plasma concentration after single 5-mg oral dose in humans. The conditions noted are these: human, read-out: GSK1034702 plasma concentration at start of post-dose PET scan. The class given is in vivo. The procedure: Serial venous blood samples were obtained at 0, 1, 2, 3, 4 and 5.5 h after the administration of a single oral dose of 5 mg of GSK1034702, to estimate the time course of GSK1034702 plasma concentration. Plasma samples were analysed using a validated analytical method.

Series [3] is described as follows: safety and tolerability of single 5-mg oral dose in healthy males. Conditions: single oral dose of 5 mg. The class given is in vivo, human. How it is done: An open-label PET study (GSK study number 110771) was conducted to assess the transport of [^11C]GSK1034702 across the BBB and its distribution in the living human brain. Four healthy males aged between 35 and 55 years old, with body mass index (BMI) between 19.0 and 29.0 kg/m^2, and the absence of past or present neurological, medical or psychiatric illnesses and concomitant medications were enrolled. Clinical status was assessed by history, physical examination, routine blood tests, urine toxicology and electrocardiogram. All subjects provided written informed consent. The study was approved by the Edinburgh Independent Ethics Committee for Medical Research and permission to administer radioisotopes was obtained from the Administration of Radioactive Substances Advisory Committee of the UK. Subjects were recruited by and monitored by the Hammersmith Medicines Research (HMR) clinic. All scanning procedures were performed at the GlaxoSmithKline Clinical Imaging Center, Hammersmith Hospital, London.
Each subject underwent a single study day, during which PET imaging was performed. T1-weighted structural MRI scan was performed for all subjects to provide neuroanatomical information. A tracer dose of [^11C]GSK1034702 (mass <50 μg) was administered as an IV bolus immediately before each PET scan. During the scanning day, each subject received a baseline [^11C]GSK1034702 scan, followed by a single 5-mg oral dose (p.o.) of […] and a subsequent [^11C]GSK1034702 scan approximately 4 h post-dose. Subjects returned to the clinic for a follow-up visit 7 to 14 days following the oral dose of GSK1034702.

Series [4] can be described thus: plasma protein binding by equilibrium dialysis, mouse. In kind it is in vitro ADME. Conditions: equilibrium dialysis 5 h. The procedure:
(§1) The in vitro brain and plasma protein binding of GSK1034702 across a range of species was determined using equilibrium dialysis as described previously.

Series [5] is described as follows: plasma protein binding by equilibrium dialysis, dog. In kind it is in vitro ADME. Conditions: equilibrium dialysis 5 h. How it is done:
as §1
A general note: In equilibrium dialysis free small molecules cross a membrane that holds back macromolecules.

Series [6] in a line: plasma protein binding by equilibrium dialysis, monkey. In kind it is in vitro ADME. The conditions noted are these: equilibrium dialysis 5 h. The procedure:
as §1

The nature of series [7]: plasma protein binding by equilibrium dialysis, human. The class given is in vitro ADME. Conditions: equilibrium dialysis 5 h. How it is done:
as §1

The nature of series [8]: brain tissue binding by equilibrium dialysis, rat. The class given is in vitro ADME. Conditions: equilibrium dialysis 5 h; for Brain tissue binding: 1 μg/mL, mean ± SD, n = 6; for fraction unbound at 5 h, 1 μg/mL: brain tissue, read-out: f ND (brain-free fraction). The procedure: as §1
A short description of series [9]: brain tissue binding by equilibrium dialysis, dog. The class given is in vitro ADME. The conditions noted are these: equilibrium dialysis 5 h. How it is done:
as §1

Series [10] in a line: brain tissue binding by equilibrium dialysis, monkey. In kind it is in vitro ADME. The conditions noted are these: equilibrium dialysis 5 h. The procedure: as §1
Series [11] concerns human recombinant m1AChR. Further details: method as in earlier work. Conditions: cited from earlier work.
In series [12] the test system is human m2-5AChR receptors. Further details: method as in earlier work. The conditions noted are these: versus m1AChR; cited from earlier work.
The test system of series [13] is P-glycoprotein (PGP). More on the design: method as in GlaxoSmithKline (GSK) data on file. Conditions: MDCK cell line expressing human MDR1; ratio printed as x:1; ref GlaxoSmithKline (GSK) data on file; cited from earlier work.
On the set-up of series [14]: method as in GlaxoSmithKline (GSK) data on file. The conditions noted are these: mouse; ref GlaxoSmithKline (GSK) data on file; cited from earlier work.
Details of series [15]: method as in GlaxoSmithKline (GSK) data on file. The conditions noted are these: rat; ref GlaxoSmithKline (GSK) data on file; cited from earlier work.
Details of series [16]: method as in GlaxoSmithKline (GSK) data on file. The conditions noted are these: marmoset; ratio printed as x:1; ref GlaxoSmithKline (GSK) data on file; cited from earlier work.
Details of series [17]: method as in PMID 22932339. Conditions: healthy smokers, nicotine abstinence model of cognitive dysfunction; cited from earlier work.
Where [18] appears, read: mean ± SD, n = 6, read-out: Plasma protein binding (converted).
Where [19] appears, read: read-out: f P (plasma-free fraction).
Setting [20] is: brain tissue, read-out: f ND (brain-free fraction).

Read-outs that look alike come from different tables or passages of the source.

As usually defined, the pEC50 is the EC50 on a negative log10 scale, so that one unit is a factor of ten. As a reminder, the efflux ratio is the permeability from basolateral to apical divided by that in the opposite direction, in the common usage.

On to `[11CH3]c1cc(F)c2[nH]c(=O)n(C3CCN(C4CCOCC4)CC3)c2c1` [[^11C]GSK1034702], for which the “metabolism over the time course of the PET scan (parent fraction in plasma)” value in series [1] is reported as “minimal metabolism”.
Take `Cc1cc(F)c2[nH]c(=O)n(C3CCN(C4CCOCC4)CC3)c2c1` [GSK1034702]: in series [2] (Subject 2, 3.2 hours post dose), the concentration at 3.2 h stood at 7.9 ng/mL. Further, the concentration at 4.4 h in [2] (Subject 3, 4.4 hours post dose) was found to be 13.2 ng/mL. Also, the concentration at 3.8 h in [2] (Subject 4, 3.8 hours post dose) was determined as 10.4 ng/mL. Moreover, the serious adverse events entry in [3] is on record as “No serious adverse events”. Further, the tolerability result in series [3] (healthy male subjects) is “well tolerated”. For the same compound, the adverse events result in [3] (one subject, salivary hypersecretion and dysgeusia, considered drug-related) was “two mild and transient adverse events”. Also, the fraction unbound at 5 h, 1 μg/mL in [4] (setting [18]) was 0.518; in [4] (setting [19]), 0.52; in [5] (setting [18]) it was 0.555; in [5] (setting [19]), 0.56; in series [6] (setting [18]), 0.583; in series [6] (setting [19]) it was 0.58. Also, the fraction unbound at 5 h, 1 μg/mL is 0.442 in series [7] (setting [18]); 0.44 in series [7] (setting [19]); 0.12 in series [8] (Rat (CD)); 0.15 in series [8] (Rat (LH)); 0.18 in series [9] (setting [20]); 0.17 in series [10] (setting [20]). The Brain tissue binding in series [8] (Rat (CD)) is listed as 87.7 (±0.5) %; in series [8] (Rat (LH)), 84.9 (±1.0) %; in [9] (1 μg/mL, mean ± SD, n = 6), 81.8 (±1.8) %; in series [10] (1 μg/mL, mean ± SD, n = 6), 83.2 (±1.1) %. In [11] (allosteric agonist at human recombinant m1AChR), the pEC50 is on record as 8.1 ± 0.1. Moreover, the “intrinsic activity (IA)” value in [11] (human recombinant m1AChR) was 0.78 ± 0.02. Further, the “selectivity over human m2-5AChR receptors” value in series [12] was 100 fold. In [13], the efflux ratio is 2.6. Moreover, the brain/blood ratio in series [14] is listed as 0.4; in [15] it was 0.6; in series [16], 2.0. Also, the “effect on episodic memory” value in series [17] is listed as “improved episodic memory”.

(Values after paper PMC4452589, “An evaluation of the brain distribution of [^11C]GSK1034702, a muscarinic-1 (M1) positive allosteric modulator in the living human brain using positron emission tomography” (EJNMMI Research, 2014).)
